PMC6271988, “New Potentially Active Pyrazinamide Derivatives Synthesized Under Microwave Conditions” (Molecules, 2014)

How the values were obtained:
[1] = Lipophilicity HPLC determination (logk); assay type: physicochemical; settings: HPLC capacity factor, C18, MeOH 70%/H2O 30%, 30 °C
[2] = system: PET in spinach chloroplasts; test: Photosynthetic electron transport (PET) inhibition, DCPIP photoreduction; assay type: biochemical, Spinacia oleracea L.; settings: for IC50: DCPIP photoreduction
Protocol: The inhibition of photosynthetic electron transport (PET) in spinach chloroplasts was determined spectrophotometrically (Genesys 6, Thermo Scientific, Madison, WI, USA) using an artificial electron acceptor 2,6-dichlorophenol-indophenol (DCPIP). The rate of photosynthetic electron transport was monitored as a photoreduction of DCPIP. Chloroplasts were prepared from Spinacia oleracea L.. The measurements were carried out in phosphate buffer (0.02 mol/L, pH 7.2) containing sucrose (0.4 mol/L), MgCl2 (0.005 mol/L) and NaCl (0.015 mol/L). The chlorophyll concentration was 30 mg/L and the samples were irradiated (~100 W/m^2 with 10 cm distance) with a halogen lamp (250 W). […] The studied compound were dissolved in DMSO due to their limited water solubility. […] The efficiency of studied compounds was expressed as 50% inhibition concentration relative to the untreated control. The standard for these measurements was DCMU (Diurone®).

[3] = system: Candida glabrata 20/I; test: Antifungal evaluation, microdilution broth method; assay type: cell-based; settings: Nakaseomyces glabratus, 20/I, CG
Protocol: (§1) Antifungal evaluation was also accomplished with microdilution broth method. On the contrary, there was used RPMI 1640 broth with glutamine as medium and conditions were humid and dark atmosphere, pH 7.0 (adjusted with 0.165 M morpholinepropanesulfonic acid, MOPS) and 35 °C. 8 fungal strains were used (Candida albicans ATCC 44859, Candida tropicalis 156, Candida krusei E28, Candida glabrata 20/I, Trichosporon asahii 1188, Aspergillus fumigatus 231, Lichtheimia corymbifera 272, Trichophyton mentagrophytes 445) together with four antimycotic standards amphotericin B, voriconazole, nystatin and fluconazole.

[4] = system: Trichosporon asahii 1188; test: Antifungal evaluation, microdilution broth method; assay type: cell-based; settings: Trichosporon asahii, 1188, TA
Protocol: as §1

[5] = system: Lichtheimia corymbifera 272; test: Antifungal evaluation, microdilution broth method; assay type: cell-based; settings: Lichtheimia corymbifera, 272, LC
Protocol: as §1

[6] = system: Trichophyton mentagrophytes 445; test: Antifungal evaluation, microdilution broth method; assay type: cell-based; settings: Trichophyton mentagrophytes, 445, TM
Protocol: as §1

[7] = system: Aspergillus fumigatus 231; test: Antifungal evaluation, microdilution broth method; assay type: cell-based; settings: Aspergillus fumigatus, 231, AF
Protocol: as §1

[8] = system: Candida krusei E28; test: Antifungal evaluation, microdilution broth method; assay type: cell-based; settings: Pichia kudriavzevii, E28, CK
Protocol: as §1

[9] = system: Candida albicans ATCC 44859; test: Antifungal evaluation, microdilution broth method; assay type: cell-based; settings: Candida albicans, ATCC44859, CA
Protocol: as §1

[10] = system: Candida tropicalis 156; test: Antifungal evaluation, microdilution broth method; assay type: cell-based; settings: Candida tropicalis, 156, CT
Protocol: as §1

[11] = system: spectrum of fungi tested (8 fungal strains); test: Antifungal evaluation, summary over the fungi tested; assay type: cell-based; settings: fungi tested, less active than the standards; read-out: IC80 antifungal
Protocol: as §1

[12] = system: Staphylococcus epidermidis; test: Antibacterial in vitro screening, microdilution broth method; assay type: cell-based; settings: 80% inhibition of control

Molecule | logk [1] | PET inhibition (result in words) [2] | IC50 [2] [µM] | further results
3-(Piperidin-1-ylamino)pyrazine-2-carboxamide [Compound 15] | −0.2333 | did not inhibit PET | – | –
3-(Pyrrolidin-1-ylamino)pyrazine-2-carboxamide [Compound 14] | −0.4889 | did not inhibit PET | – | –
C[C@@H]1[C@H](O)[C@@H](C)/C=C/C=C/C=C/C=C/C=C/C=C/C=C/[C@H](O[C@@H]2O[C@H](C)[C@@H](O)[C@H](N)[C@@H]2O)C[C@@H]2O[C@](O)(C[C@@H](O)C[C@@H](O)[C@H](O)CC[C@@H](O)C[C@@H](O)CC(=O)O[C@H]1C)C[C@H](O)[C@H]2C(=O)O [AMP, amphotericin B] | – | – | – | IC80 ([3]; 24 h): 980 nM; IC80 ([3]; 48 h): 1950 nM; IC80 ([4]; 24 h): 490 nM; IC80 ([4]; 48 h): 980 nM; IC80 ([5]; 24 h): 7.81 µM; IC80 ([5]; 48 h): 7.81 µM; IC80 ([6]; 72 h): 1950 nM; IC80 ([6]; 120 h): 1950 nM; IC80 ([7]; 24 h): 1950 nM; IC80 ([7]; 48 h): 1950 nM; IC80 ([8]; 24 h): 1950 nM; IC80 ([8]; 48 h): 1950 nM; IC80 ([9]; 24 h): 120 nM; IC80 ([9]; 48 h): 490 nM; IC80 ([10]; 24 h): 1950 nM; IC80 ([10]; 48 h): 1950 nM
CNc1nccnc1C(N)=O [Compound 1, 3-(Methylamino)pyrazine-2-carboxamide] | −0.4028 | did not inhibit PET | – | –
CCNc1nccnc1C(N)=O [Compound 2, 3-(Ethylamino)pyrazine-2-carboxamide] | −0.2014 | did not inhibit PET | – | –
CCCNc1nccnc1C(N)=O [Compound 3, 3-(Propylamino)pyrazine-2-carboxamide] | 0.0038 | – | 1590 | –
CCCCNc1nccnc1C(N)=O [Compound 4, 3-(Butylamino)pyrazine-2-carboxamide] | 0.2287 | – | 203 | IC80 [11]: ≥ 250 µM
CCCCCNc1nccnc1C(N)=O [Compound 5, 3-(Pentylamino)pyrazine-2-carboxamide] | 0.4563 | – | 38.6 | IC80 [12]: < 250 µM; IC80 [11]: ≥ 250 µM
CCC(C)(C)Nc1nccnc1C(N)=O [Compound 6, 3-(tert-Pentylamino)pyrazine-2-carboxamide] | 0.5468 | – | 480 | –
CCCCCCCNc1nccnc1C(N)=O [Compound 8, 3-(Heptylamino)pyrazine-2-carboxamide] | 0.9198 | – | – | IC80 [11]: ≥ 250 µM
CCCCCCCCNc1nccnc1C(N)=O [Compound 9, 3-(Octylamino)pyrazine-2-carboxamide] | 1.1533 | – | 14.3 | –
CCCCN(CCCC)c1nccnc1C(N)=O [Compound 10, 3-(Dibutylamino)pyrazine-2-carboxamide] | 0.5197 | did not inhibit PET | – | –
